Laboratory results from US8895571B2, “Isoindolinone and pyrrolopyridinone derivatives as Akt inhibitors” (Incyte Corporation, priority 2011, dated 2014).

How the values were obtained:
Full length Akt1 = target: T1, Full length Akt1 (Homo sapiens, UniProt P31749); assay: In vitro Akt kinase enzymatic assay (HTRF), Akt1; assay type: biochemical; details: 0.4 nM Akt1, substrate solution with 5 mM ATP, 25° C. 1 hr
T1 construct: Full length Akt1 (cat #P2999); purchased PerkinElmer P2999
Summary of the method: (§1)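 Full-length enzyme (0.4 nM Akt1 or 0.6 nM Akt2/Akt3 in the enzyme solution) was combined with a substrate solution of 0.1 μM ULight-Crosstide plus 5 mM ATP in pH 7.8 HEPES/MgCl2/DTT/Tween20 buffer and reacted 1 hr at 25° C. The EDTA stop contained Eu anti-phospho-Crosstide; IC50 was fitted from 11-point HTRF inhibition curves.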

Full length Akt2 = target: T2, Full length Akt2 (Homo sapiens, UniProt P31751); assay: In vitro Akt kinase enzymatic assay (HTRF), Akt2; assay type: biochemical; details: 0.6 nM Akt2, substrate solution with 5 mM ATP, 25° C. 1 hr
T2 construct: Full length Akt1 (cat #P2999), Akt2 (cat #PV3184); purchased PerkinElmer PV3184
Summary of the method: as §1

Full length Akt3 = target: T3, Full length Akt3 (Homo sapiens, UniProt Q9Y243); assay: In vitro Akt kinase enzymatic assay (HTRF), Akt3; assay type: biochemical; details: 0.6 nM Akt3, substrate solution with 5 mM ATP, 25° C. 1 hr
T3 construct: Full length Akt1 (cat #P2999), Akt2 (cat #PV3184), Akt3 (cat #PV3185); purchased PerkinElmer PV3185
Summary of the method: as §1

Full length PKA = target: T4, Full length PKA (Homo sapiens, UniProt P17612); assay: PKA in vitro enzymatic assay (HTRF); assay type: biochemical; details: 0.035 nM enzyme solution, substrate solution with 5 mM ATP, 25° C. 1 hr
T4 construct: Full length PKA (cat #P2912); purchased Invitrogen P2912
Summary of the method: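 IC50 came from curve fitting of percent inhibition across an 11-point, 3-fold compound series, with HTRF read after EDTA quench and Tb-labelled p-S133 antibody detection. Enzyme (0.035 nM solution) and substrate (0.1 μM fluorescein-CREBtide solution containing 5 mM ATP) reacted for 1 h at 25°C. The buffer was HEPES 50 mM pH 7.8 with 10 mM MgCl2, 5 mM DTT and 0.005% Tween20.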

[1] = test system: LNCaP cells (human prostate tumor cell line); assay: Akt LNCaP proliferation assay (MTS); assay type: cell-based; details: 2% fetal bovine serum, 48 hours, class symbols
Summary of the method: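 Cells plated at 10,000/well in RPMI with 2% FBS overnight at 37° C., 5% CO2, then exposed to compound at 1000 nM to 0.5 nM (3-fold dilutions) for 48 hours. Viable cells measured by MTS colorimetric read-out after 2 hours; IC50 taken as concentration giving 50% inhibition of total proliferation.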

T1 sequence (P31749 whole entry): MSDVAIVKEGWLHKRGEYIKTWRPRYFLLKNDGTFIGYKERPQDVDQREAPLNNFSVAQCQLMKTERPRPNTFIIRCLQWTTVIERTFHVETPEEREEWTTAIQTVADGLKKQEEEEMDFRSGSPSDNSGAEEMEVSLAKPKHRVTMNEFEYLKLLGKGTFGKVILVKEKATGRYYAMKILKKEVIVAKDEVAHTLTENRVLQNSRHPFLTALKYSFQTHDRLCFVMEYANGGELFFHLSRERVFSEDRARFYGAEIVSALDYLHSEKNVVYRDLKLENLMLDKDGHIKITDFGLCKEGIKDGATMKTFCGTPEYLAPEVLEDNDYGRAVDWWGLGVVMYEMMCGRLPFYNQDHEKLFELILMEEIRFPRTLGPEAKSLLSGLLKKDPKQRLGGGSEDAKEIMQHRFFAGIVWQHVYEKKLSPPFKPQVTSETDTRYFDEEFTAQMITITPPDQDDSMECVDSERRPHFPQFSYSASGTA
T3 sequence (Q9Y243 whole entry): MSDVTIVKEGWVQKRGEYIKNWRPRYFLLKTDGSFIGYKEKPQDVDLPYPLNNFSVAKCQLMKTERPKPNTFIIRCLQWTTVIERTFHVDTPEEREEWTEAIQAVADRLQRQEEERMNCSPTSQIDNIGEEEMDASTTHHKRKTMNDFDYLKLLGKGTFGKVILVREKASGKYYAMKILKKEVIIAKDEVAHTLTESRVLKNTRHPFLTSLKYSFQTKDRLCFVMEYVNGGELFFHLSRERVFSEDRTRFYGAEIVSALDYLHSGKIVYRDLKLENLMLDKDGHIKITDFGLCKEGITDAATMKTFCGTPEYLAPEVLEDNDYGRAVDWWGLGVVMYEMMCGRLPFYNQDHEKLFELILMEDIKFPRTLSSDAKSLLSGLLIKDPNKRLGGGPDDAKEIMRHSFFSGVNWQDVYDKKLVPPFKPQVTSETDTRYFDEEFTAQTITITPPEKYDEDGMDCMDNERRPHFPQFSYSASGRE
T2 sequence (P31751 whole entry): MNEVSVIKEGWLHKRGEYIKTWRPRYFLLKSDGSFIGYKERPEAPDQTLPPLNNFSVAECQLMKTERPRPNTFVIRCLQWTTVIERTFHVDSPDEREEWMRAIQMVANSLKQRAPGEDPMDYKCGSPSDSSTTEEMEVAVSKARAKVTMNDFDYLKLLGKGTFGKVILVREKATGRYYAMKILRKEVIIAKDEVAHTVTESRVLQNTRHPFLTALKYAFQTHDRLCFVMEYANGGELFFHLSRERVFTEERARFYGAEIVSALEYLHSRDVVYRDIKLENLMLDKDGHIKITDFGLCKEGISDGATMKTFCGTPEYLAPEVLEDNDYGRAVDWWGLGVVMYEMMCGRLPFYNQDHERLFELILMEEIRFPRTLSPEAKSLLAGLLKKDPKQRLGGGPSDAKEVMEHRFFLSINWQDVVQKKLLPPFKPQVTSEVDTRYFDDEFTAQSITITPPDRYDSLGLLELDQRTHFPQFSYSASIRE

| IC50 (Full length Akt1) | IC50 (Full length Akt2) | IC50 (Full length Akt3) | IC50 (Full length PKA) | IC50 [1] | SMILES |
| --- | --- | --- | --- | --- | --- |
| < 500 nM | < 500 nM | < 500 nM | 500 to 5000 nM | < 500 nM | Cn1nccc1-c1ccc2c(c1)CN([C@H](CN)Cc1cccc(F)c1)C2=O [Example 1, 2-[(1S)-2-Amino-1-(3-fluorobenzyl)ethyl]-5-(1-methyl-1H-pyrazol-5-yl)isoindolin-1-one] |
| < 500 nM | < 500 nM | < 500 nM | > 5000 nM | < 500 nM | Cn1ncc(Cl)c1-c1ccc2c(c1)CN([C@H](CN)Cc1cccc(C#N)c1)C2=O [Example 62, 3-{(2S)-3-amino-2-[5-(4-chloro-1-methyl-1H-pyrazol-5-yl)-1-oxo-1,3-dihydro-2H-isoindol-2-yl]propyl}benzonitrile] |
| < 500 nM | < 500 nM | < 500 nM | > 5000 nM | < 500 nM | Cn1ncc(C#CC(C)(C)O)c1-c1ccc2c(c1)CN([C@H](CN)Cc1cc(F)cc(F)c1)C2=O [Example 54, 2-[(1S)-2-amino-1-(3,5-difluorobenzyl)ethyl]-5-[4-(3-hydroxy-3-methylbut-1-yn-1-yl)-1-methyl-1H-pyrazol-5-yl]isoindolin-1-one] |
